Measured values taken from US12630604B2, “Methods of making chimeric antigen receptor-expressing cells” (Novartis AG, priority 2018, dated 2026).
“Also recorded” adds a separate entry of the source.

What was measured:
Type in all cases: cell-based
T cells [1] = assay: T cell differentiation status by flow cytometry (CCR7/CD45RO), cytokine process; settings: purified T cells cultured with cytokine 24 hours, no CD3/CD28 stimulation
Protocol: The cells were immunophenotyped for T cell differentiation status and transduction of the CAR was assessed using flow cytometry. The cells were washed, viability dye was added followed by the antibody cocktail (Table 20), and the plates were incubated for 20 minutes at room temperature. After the incubation, the cells were washed twice and fixed prior to being analyzed on the BD fortessa.

T cells [2] = assay: T cell culture with cytokines after αCD3/αCD28 bead activation (expansion, size, viability); settings: for T cell expansion: T cells activated with αCD3αCD28 beads at day 0 in presence of cytokine; for cell size and viability: after TCR engagement
Protocol: Previously frozen T cells were thawed and contacted with αCD3/αCD28 dynal beads (cell to bead ratio of 1 to 3) in the presence of indicated cytokines at day 0. From day 3, twice more T cell growth media (RPMI1640, 10% FBS, 2 mM L-glutamin, 100 μM non-essential amino acids, 1 mM sodium pyruvate, 10 mM Hepes, 55 μM β-mercaptoethanol, 10% FBS, and 100 U/ml of penicillin-streptomycin) was added to the plate with indicated cytokines (without cytokine, rhIL2 (501 U/ml, Novartis), IL6 (10 ng/ml, R&D systems), IL7 (10 ng/ml, Peprotech), IL15 (10 ng/ml, Peprotech), and IL21 (10 ng/ml, Peprotech)) at day 3, 5, 6, 9, 12, 15, and 18.

IL6Rβ expressing cells = assay: Cell surface staining (IL6Rα/IL6Rβ and differentiation markers); settings: after TCR engagement
Description: Cells were harvested at indicated time points and then stained with live/dead dye (eFluro780, eBioscience), CD3 (BioLegend, clone #: OKT3), CD4 (BioLegend, clone #: OKT4), CD8 (BD Bioscience, clone #: RPA-T8), CD45RO (BioLegend, clone #: UCHL1), CCR7 (BioLegend, clone #: G043H7), CD27 (BD Horizon, clone #: L128), CD127 (BioLegend, clone #: A019D5), CD57 (BioLegend, clone #: HCD57), CD126 (BioLegend, clone #: UV4), and CD130 (R&D Systems, clone #: 28126) antibodies. The cells were acquired by FACS Fortessa and then FlowJo program was used for data analysis.

T cells [3] = assay: ARM-BCMA CAR expression kinetics in vitro with or without AZT (FACS); settings: 30 μM and 100 μM doses
Protocol: In contrast to TM which measures lentiviral integration of the CAR transgene after 8-9 days, in the ARM process, the lentiviral transgene may not be fully integrated and truly expressed within 24 h post lentiviral addition, as lentiviral pseudotransduction could occur (Haas D L, et al., (2000) Mol Ther; 2(1):71-80; Galla M, et al., (2004) Mol Cell; 16(2):309-15). Therefore, the BCMA-CAR expression pattern was evaluated over time by extended culturing of ARM-BCMA CAR in vitro in the presence or absence of 3′-azido-3′-deoxythymidine (AZT) to evaluate the potential pseudotransduction versus stable integration and expression of the CAR transgene. Flow cytometry (FACS) analyses were performed to detect CAR surface expression at 24 h, 48 h, 72 h, 96 h and 168 h post T cell activation and transduction with the lentiviral vector. In some cases, ARM-BCMA CAR and an aliquot of this product were frozen down immediately upon harvest for additional characterization in other assays.

Row | Molecule | maintenance of self-renewing / naïve T cells (CD45RO−CCR7+) (T cells [1]) | T cell expansion (T cells [2]) | cell size and viability (T cells [2]) | expansion of IL6Rβ expressing cells (IL6Rβ expressing cells) | inhibition of CAR expression (T cells [3])
1 | IL-15: cytokine | maintained self-renewing T cells in vitro | enhanced T cell expansion; also recorded: the greatest enhancement | did not affect cell size and viability | enhanced expansion of IL6Rβ expressing cells | –
2 | Cc1cn([C@H]2C[C@H](N=[N+]=[N-])[C@@H](CO)O2)c(=O)[nH]c1=O [AZT, 3′-azido-3′-deoxythymidine] | – | – | – | – | effectively inhibit CAR expression
3 | IL7: cytokine (protein, UniProt P13232 26-177, looked up) Interleukin-7: DCDIEGKDGKQYESVLMVSIDQLLDSMKEIGSNCLNNEFNFFKRHICDANKEGMFLFRAARKLRQFLKMNSTGDFDLHLLKVSEGTTILLNCTGQVKGRKPAALGEAQPTKSLEENKSLKEQKKLNDLCFLKRLLQEIKTCWNKILMGTKEH | – | enhanced T cell expansion | did not affect cell size and viability | – | –
